# Test results published in US8173620B2, “BHQ-caged nucleotide probes photolysable by two-photon excitation” (University of Georgia Research Foundation, Inc., priority 2008, dated 2012).
# Where two headings read alike, the source gives them in different places. Marks after values point to notes of the source that are not given here.
# Assays:
# [1] = Fluorescence spectra of quinoline chromophores in KMOPS; type: physicochemical; conditions: pH 7.2, excitation 365 nm
# Method: The fluorescence spectra of BHQ-OAc, NHQ-OAc, CyHQ-OAc, CHQ-OAc, DMAQ-OAc, DMAQ-Cl-OAc, and TQ-OAc (15 μM in KMOPS, λex=365 nm) are shown in FIG. 18.
# [2] = Two-photon uncaging action cross-section (740 nm, Tsien's method, fluorescein reference); type: physicochemical; conditions: for δu (two-photon uncaging action cross-section): KMOPS, pH 7.2, measured at 740 nm; for λa (calculated 2-photon absorbance cross-section): calculated from du = da × Qu
# Method: BHQ-ATP (159) (100 μM in KMOPS, pH=7.2) was photolyzed with a Chameleon Ultra II laser at 740 nm in 25-μL aliquots. The irradiation time intervals of the pulsed laser were 0, 5, 10, 20, and 40 min. Three samples of each time interval were collected and analyzed by HPLC using the same method as in the one-photon photolysis. Using Tsien's method of determining two-photon uncaging action cross-section with a fluorescence reference solution, the two-photon uncaging action cross-section of BHQ-ATP (159) was measured to be 0.17 GM. The ATP yield was about 40%.
# Measurements were carried out in microcuvettes (10×1×1 mm illuminated dimensions) with an effective filling volume of 20 μL (26.10F-Q-10, Starna, Atascadero, Calif.). The IR laser used was from a fs-pulsed and mode-locked Ti:sapphire laser (Mira 900 pumped by a Verdi, Coherent, Santa Clara, Calif. or a Chameleon Ultra II) focused on the center of the cuvette chamber with a 25-mm focal length lens optimized for IR lasers (06LXP003/076, Melles-Griot, Irvine, Calif.). The pulse width of the laser was 144 fs for Mira 900. The laser beam was attenuated by passing the beam through an electro-optical modulator or a ½-waveplate and polarizing beamsplitter cube so that the average power exiting the apparatus was 300-350 mW.
# Successive aliquots (25 μL) of each caged compound in KMOPS were placed into the cuvette and irradiated for 0, 5, 10, 20, and 40 min. Each aliquot was analyzed by HPLC to determine the concentration of the remaining caged compound as described for determining the uncaging quantum efficiency for one photon photolysis. The progress curves were plotted, and fitted to a single exponential decay curve. The formation of ATP was monitored, plotted, and fitted to a single exponential rise to max curve. For compounds 1c, 2a, 2b, and 3 (τdark<50 h), a correction was made for background dark hydrolysis that occurred while the irradiated samples were waiting for HPLC analysis. The fraction of the decay from hydrolysis in the dark was calculated using the measured dark hydrolysis rate and the waiting time from the end of the experiment until the HPLC injection. This value was subtracted from the total decay (hydrolysis+photolysis) measured by HPLC.
# The two-photon uncaging cross-section (δu) was determined using Tsien's method, (as described by Furuta et al., (1999) Proc. Natl. Acad. Sci. U.S.A. 96: 1193-1200 (incorporated herein by reference in its entirety), referencing to fluorescein, a compound with a known fluorescence quantum yield (Qf=0.9) and absorbance cross-section (δa=30 GM at 740 nm), using the following equation: […]
# Np is the number of molecules photolyzed per unit time (molecules/s, determined by HPLC analysis of the reaction); φ is the collection efficiency of the detector (SED033 on an IL-1700, International Light, Newburyport, Mass.) used to measure the fluorescence of fluorescein emitted at a right angle to the beam and passed though a 535/45 nm bandpass filter; CF is the concentration of the fluorescein standard (mol/L); <F(t)> is the time averaged fluorescent photon flux (photons/s) of the fluorescein standard collected by the detector; and CS is the initial concentration of the caged compound (mol/L). The light-induced uncaging of —OAc from a variety of caging moieties is illustrated in FIG. 23.
# [3] = Quantum efficiency for one-photon photolysis (365 nm, HPLC); type: physicochemical; conditions: KMOPS, pH 7.2; for Qu (one-photon uncaging quantum efficiency): measured at 365 nm; for Sensitivity Qu × e: one-photon excitation, 365 nm, in M^-1·cm^-1
# Method: The quantum efficiency of BHQ-ATP (159) decay and ATP recovery were determined by photolyzing a KMOPS solution of BHQ-ATP (159) (100 μM) with light from a 365 nm lamp through a set of filters that narrowed the band of light to a tight 30 nm range around 365 nm. Aliquots (20 μL) were taken out from the photolysis cuvette after a time interval of 0, 10, 20, 40, 60, or 90 secs, and HPLC analyses of these samples with a reverse phase C18 column and 85% 25 mM KH2PO4 buffer (pH=6.2)/15% methanol solvent system were carried out. The BHQ-ATP (159) peak (retention time=4.2 min.) and ATP peak (retention time=2.8 min.) were recorded and analyzed.
# KMOPS-buffered solutions (3 mL) of the substrates (100 μM) in quartz cuvettes (21-Q-10, Starna, Atascadero, Calif.) were irradiated with 365 nm UV light from a mercury lamp (Spectroline SB-100P; Spectronics, Westbury, N.Y.) with a light filter. The spectral output of the lamp after the glass filters (CSO-52 and CS7-60, Ace Glass, Vineland, N.J.) has a band between 350 nm and 380 nm. The duration of each irradiation period ranged from 5 sec to 60 sec. After each period of irradiation, a 20 μL aliquot of the solution was removed for analysis by HPLC, using an external standard method to determine concentrations.
# The analytes were eluted isocratically (flow rate of 1 mL/min) with acetonitrile and water containing 0.1% TFA (Table 1). The only exception is that BHQ-caged ATP was eluted with methanol and 25 mM KH2PO4 buffer (pH=6.2). The progress curves were plotted and fit to a single exponenial decay curve. The uncaging quantum efficiency (Qu) of each chromophore was calculated using Qu=(Iσt90%)^−1, where I is the radiant power in einstein·cm^−2s^−1, σ is the decadic extinction coefficient (10^3×ε, molar extinction coefficient) in cm^−2·mol^−1, and t90% is the irradiation time in s for 90% conversion to product (as described by Adams et al. (J. Am. Chem. Soc. (1988) 110: 3212-3220) incorporated herein by reference in its entirety). The UV intensity of the lamp was measured by potassium ferrioxalate actinometry (as described by Hatchard & Parker (Proc. Roy. Soc. London, Ser. A (1956) 235: 518-536) incorporated herein by reference in its entirety) in the same setup. ATP was monitored for its formation during the process, plotted, and fitted to an exponential rise to max curve.
# [4] = Dark hydrolysis rate / stability in the dark; type: physicochemical; conditions: KMOPS, pH 7.2, dark
# Method: Substrates were dissolved in KMOPS and stored in the dark at room temperature. Samples for HPLC analysis were carried out periodically and injected as described for one-photon photolysis. Data were fit to single exponential decay curves from which the time constant, τ, was calculated.
# [5] = UV absorption of quinoline chromophores in KMOPS buffer; type: physicochemical; conditions: pH 7.2
# From the text: It has two absorptive bands beyond 300 nm, one at 320 nm and the other at 370 nm. The 370 nm absorption band arises from the phenolate form of the BHQ skeleton, and the 320 nm absorption band is from the phenol form. […] The λmax of BHQ-ATP (159) is 376 nm, and the extinction coefficient at this wavelength is 1300 M^−1cm^−1. […]
# [6] = KMOPS, pH 7.2; value taken from Fedoryak & Dore, Org. Lett. 2002; cited from earlier work
# [7] = KMOPS, pH 7.2; 740 nm; value taken from Fedoryak & Dore, Org. Lett. 2002; cited from earlier work
# [8] = KMOPS, pH 7.2; 365 nm; value taken from Fedoryak & Dore, Org. Lett. 2002; cited from earlier work
# [9] = KMOPS, pH 7.2; value taken from Fedoryak & Dore, Org. Lett. 2002; cited from earlier work; remark: listed apart in the source
# [10] = literature; cited from earlier work
# [11] = literature value; cited from earlier work
# renal Na,K-ATPase = biological target: T1, renal Na,K-ATPase (Homo sapiens, UniProt P05023); conditions: incubated with renal Na,K-ATPase, Kaplan et al. 1978; cited from earlier work
# T1 construct: host or cells: kidney (renal) enzyme, as reported by Kaplan et al. 1978
Compound,λem [1],δu (two-photon uncaging action cross-section) [2],λa (calculated 2-photon absorbance cross-section) [2],Qu (one-photon uncaging quantum efficiency) [3],Sensitivity Qu × e [3],τdark (time constant for hydrolysis in the dark) [4],ε (extinction coefficient at λmax) [5],λmax [5],other results
"CC(=O)OCc1ccc2ccc(O)c(C#N)c2n1 [CyHQ-OAc (1b), (8-Cyano-7-hydroxyquinolin-2-yl)methyl acetate]",436 nm,0.32 GM,1.0 GM,0.31,2387,500 h,7700 M⁻¹ cm⁻¹,364 nm,–
"CC(=O)OCc1ccc2ccc(N(C)C)cc2n1 [DMAQ-OAc (2a), (7-(Dimethylamino)quinolin-2-yl)methyl acetate]",496 nm,0.13 GM,2.8 GM,0.046,211,31 h,4600 M⁻¹ cm⁻¹,368 nm,–
CC(=O)OCc1ccc2ccc(O)c(Br)c2n1 [BHQ-OAc],478 nm,–,2.0 GM,–,754,–,–,–,ε [6]: 2600^g M^−1 · cm^−1; λmax [6]: 369^g nm; δu (two-photon uncaging action cross-section) [7]: 0.59^g GM; Qu (one-photon uncaging quantum efficiency) [8]: 0.29^g; τdark (time constant for hydrolysis in the dark) [9]: 71^g h
COc1cc(C(C)OP(=O)(O)OP(=O)(O)OP(=O)(O)OC[C@H]2O[C@@H](n3cnc4c(N)ncnc43)[C@H](O)[C@@H]2O)c([N+](=O)[O-])cc1OC (stereo partly drawn) [DMNPE-ATP],–,–,–,–,–,–,–,–,λmax [10]: 350 nm
"COc1cc(OC)cc(C(OP(=O)(O)OP(=O)(O)OP(=O)(O)OCC2OC(n3cnc4c(N)ncnc43)C(O)C2O)C(=O)c2ccccc2)c1 (stereo not drawn) [DMB-ATP, P^3-[1-(3,5-dimethoxyphenyl)-2-phenyl-2-oxo]ethyl ester of ATP]",–,–,–,–,–,–,–,–,ATP release rate [11]: > 10^5 sec^−1
"CC(=O)OCc1ccc2ccc(O)c([N+](=O)[O-])c2n1 [NHQ-OAc (1a), 7-Hydroxy-8-nitroquinolin-2-yl methyl acetate]",–,0.00 GM,–,0.00,0,278 h,6500 M⁻¹ cm⁻¹,350 nm,–
"CN(C)c1ccc2c(COP(=O)(O)OP(=O)(O)OP(=O)(O)OCC3OC(n4cnc5c(N)ncnc54)C(O)C3O)cc(=O)oc2c1 (stereo not drawn) [DMACM-caged ATP, [7-(dimethylamino)coumarin-4-yl]methyl ATP]",–,–,–,–,–,–,–,–,ATP release rate [11]: 1.6e+09 s⁻¹
"Nc1ncnc2c1ncn2C1OC(COP(=O)(O)OP(=O)(O)OP(=O)(O)OCc2ccccc2[N+](=O)[O-])C(O)C1O (stereo not drawn) [NB-ATP, 2-nitrobenzyl ester of ATP]",–,–,–,–,–,–,–,–,"substrate or inhibitor of Na,K-ATPase before irradiation (renal Na,K-ATPase): neither a substrate nor inhibitor of this enzyme"
"CC(OP(=O)(O)OP(=O)(O)OP(=O)(O)OCC1OC(n2cnc3c(N)ncnc32)C(O)C1O)c1ccccc1[N+](=O)[O-] (stereo not drawn) [NPE-ATP, P^3-1-(2-nitrophenyl)ethyl ester of ATP]",–,–,–,–,–,–,–,–,ATP release rate [11]: 118 s⁻¹
"CC(=O)OCc1cc(Cl)c2ccc(N(C)C)cc2n1 [DMAQ-Cl—OAc (2b), (4-Chloro-7-(dimethylamino)quinolin-2-yl)methyl acetate]",493 nm,0.47 GM,5.2 GM,0.090,234,34 h,3300 M⁻¹ cm⁻¹,386 nm,–
"CC(=O)OCc1ccc2ccc(O)c(Cl)c2n1 [CHQ-OAc (1c), (8-Chloro-7-hydroxyquinolin-2-yl)methyl acetate]",492 nm,0.12 GM,1.2 GM,0.10,280,49 h,2800 M⁻¹ cm⁻¹,370 nm,–
